Measurements as given in patent US8614179B2, “Antibacterial combination therapy for the treatment of gram positive bacterial infections” (E-Therapeutics PLC, priority 2008, dated 2013).
Converted amounts (≈) assume the structure as drawn. Where two headings read alike, the source gives them in different places.

Assays:
[1] = system: E1 E. gall ATCC 12359 VanC; test: organism not typed; format: cell-based; settings: Table 4; strain E1 E. gall ATCC 12359 VanC; agents singly or miconazole MIC with 2.5 mg/L nisin
Protocol: (§1) In example experiments miconazole nitrate, econazole nitrate and clotrimazole were dissolved in DMSO. Colistin, D-cycloserine, fosfomycin and polymixin B were dissolved in water. Nisin was suspended at 10 mg/mL in 0.02 M HCl, and the supernatant fraction following centrifugation at 10,000 g for 10 mins was used in the following experiments.
Other solvents that may be used include caster oil, pyridine, and 0.9% saline. For IV administration agents may be solubilised in polyethoxylated caster oil, or cyclodextrins such as sulfobutylether7-βcyclodextrin or hydroxypropyl-β-cyclodextrin and lactic acid. Minimum inhibitory concentrations (MICs) of a range of clinical and control bacterial organisms were measured according to BSAC (British Society for Antimicrobial Chemotherapy) guidelines (Andrews 2001), for single agents. The method of determining MICs of imidazole with colistin, D-cycloserine, fosfomycin, polymixin B, or nisin is described briefly as follows. MICs were measured by agar dilution. Kill curves were performed in accordance with the methods of Garrison and Nuemiller, 2007. […] Total logarithmic reductions in bacterial counts were determined by subtracting 24 h CFU/mL values from starting inocula. […]
The MIC is the minimum amount of an antibiotic at which there is no visible growth of bacteria. Tiny single colonies or faint hazes were not counted as growth. […]

Clostridium difficile = test: MIC against clinical isolates of Clostridium difficile; format: cell-based; settings: Table 5, miconazole alone or with 0.5 mg/L nisin
Protocol: as §1
(§2) Other solvents that may be used include caster oil, pyridine, and 0.9% saline. For IV administration agents may be solubilised in polyethoxylated caster oil, or cyclodextrins such as sulfobutylether7-βcyclodextrin or hydroxypropyl-β-cyclodextrin and lactic acid. Minimum inhibitory concentrations (MICs) of a range of clinical and control bacterial organisms were measured according to BSAC (British Society for Antimicrobial Chemotherapy) guidelines (Andrews 2001), for single agents. The method of determining MICs of imidazole with colistin, D-cycloserine, fosfomycin, polymixin B, or nisin is described briefly as follows. MICs were measured by agar dilution. Kill curves were performed in accordance with the methods of Garrison and Nuemiller, 2007. Briefly kill profiles were generated by logarithmically plotting mean CFU/mL data over time. Total logarithmic reductions in bacterial counts were determined by subtracting 24 h CFU/mL values from starting inocula.
(§3) Stock solutions were prepared at concentrations of 1000 mg/L and 100 mg/L. To determine the MIC of miconazole, the appropriate amount of each stock solution were added to separate Petri dishes give a range of final concentrations (after the addition of 20 mL molten agar): from 0.12 to 32 mg/L. To determine the MICs of miconazole with the specific agent active on a bacterial cell surface, these concentrations of miconazole were used in addition to a fixed sub-inhibitory amount of the agent active on a bacterial cell surface. […] Volumes (20 mL) of cooled molten IST agar (oxoid) was added to each Petri dish and mixed by swirling. After drying, the plates were stored at 4° C. and protected from light. Plates were used on the day of preparation.
(§4) The test organisms were grown overnight in 5 mL IST broth. Using a dilution in 0.9% saline of 1:100, the appropriate agar plates were inoculated using a multipoint inoculator.
(§5) Agar plates and microtitre plates were incubated at 37° C. in air for 18-20 hours.
(§6) The MIC is the minimum amount of an antibiotic at which there is no visible growth of bacteria. Tiny single colonies or faint hazes were not counted as growth. Synergy was reported if the inhibitory effect of the drugs in combination were greater than the sum of the inhibitory effects of each drug singly. The concentration of miconazole, with or without the cell membrane or cell wall active agent, capable of inhibiting the growth of 50% and 90% of the strains tested is reported as the MIC50 and MIC90 respectively. The range of MICs for each group of bacterial strains is also reported.

MRSA AND VRE = test: MIC by agar dilution, MIC50/MIC90/range over MRSA and VRE strain panel; format: cell-based, Staphylococcus aureus; Enterococci
Protocol: In example experiments miconazole nitrate, econazole nitrate and clotrimazole were dissolved in DMSO. Colistin, D-cycloserine, fosfomycin and polymixin B were dissolved in water.
as §2, with “The method of determining MICs of imidazole with colistin, D-cycloserine, fosfomycin, polymixin B, or nisin is described briefly as follows.” left out
as §3
The test organisms were grown overnight in 5 mL IST broth. Using a dilution in 0.9% saline of 1:100, the appropriate agar plates were inoculated using a multipoint inoculator. […]
The MIC is the minimum amount of an antibiotic at which there is no visible growth of bacteria. Tiny single colonies or faint hazes were not counted as growth. […] The concentration of miconazole, with or without the cell membrane or cell wall active agent, capable of inhibiting the growth of 50% and 90% of the strains tested is reported as the MIC50 and MIC90 respectively. The range of MICs for each group of bacterial strains is also reported.

[2] = system: Enterococcus faecium (VRE); test: microbe, parasite or virus in culture; format: cell-based; settings: read-out: MIC
Protocol: as §1, §2, §3, §4, §5, §6

[3] = Table 1a, MRSA n = 27, VRE n = 5, miconazole MIC alone or with D-cycloserine fixed at 10 mg/L
[4] = Table 1b, MRSA n = 27, VRE n = 5, miconazole MIC alone or with fosfomycin fixed at 5 mg/L
[5] = Table 1c, MRSA n = 21, VRE n = 3, miconazole MIC alone or with colistin fixed at 5 mg/L
[6] = Table 1e, MRSA n = 21, VRE n = 4, miconazole MIC alone or with nisin fixed at 2.5 mg/L
[7] = Table 3, MRSA n = 27, VRE n = 5, miconazole alone, 1:1 bacitracin to miconazole, or with bacitracin fixed at 2.5 mg/L

Clc1ccc(COC(Cn2ccnc2)c2ccc(Cl)cc2Cl)c(Cl)c1 (centres unmarked) [Miconazole, 1-[2-(2,4-Dichlorophenyl)-2-[(2,4-dichlorophenyl)methoxy]ethyl]-1H-imidazole]
MIC [1]: 1 µg/mL | MIC (Clostridium difficile; Clostridioides difficile, C. difficile clinical isolate 184, read-out: MIC): > 16 µg/mL | MIC (Clostridium difficile; C. difficile clinical isolate 5): >16 µg/mL | MIC (Clostridium difficile; C. difficile clinical isolate 23): >16 µg/mL | MIC (Clostridium difficile; C. difficile clinical isolate 28): >16 µg/mL | MIC (Clostridium difficile; C. difficile clinical isolate 30): >16 µg/mL | MIC (Clostridium difficile; C. difficile clinical isolate 31): >16 µg/mL | MIC (Clostridium difficile; C. difficile clinical isolate 41): >16 µg/mL | MIC (Clostridium difficile; C. difficile clinical isolate 47): >16 µg/mL | MIC (Clostridium difficile; C. difficile clinical isolate 57): >16 µg/mL | MIC (Clostridium difficile; C. difficile clinical isolate 58): >16 µg/mL | MIC (Clostridium difficile; C. difficile clinical isolate 77): >16 µg/mL | MIC (Clostridium difficile; C. difficile clinical isolate 83): >16 µg/mL | MIC (Clostridium difficile; C. difficile clinical isolate 84): >16 µg/mL | MIC (Clostridium difficile; C. difficile clinical isolate 87): >16 µg/mL | MIC (Clostridium difficile; C. difficile clinical isolate 96): >16 µg/mL | MIC (Clostridium difficile; C. difficile clinical isolate 97): >16 µg/mL | MIC (Clostridium difficile; C. difficile clinical isolate 98A): >16 µg/mL | MIC (Clostridium difficile; C. difficile clinical isolate 99A): >16 µg/mL | MIC (Clostridium difficile; C. difficile clinical isolate 102): >16 µg/mL | MIC (Clostridium difficile; C. difficile clinical isolate 120): >16 µg/mL | MIC (Clostridium difficile; C. difficile clinical isolate 126): >16 µg/mL | MIC (Clostridium difficile; C. difficile clinical isolate 130): >16 µg/mL | MIC (Clostridium difficile; C. difficile clinical isolate 169): >16 µg/mL | MIC (Clostridium difficile; C. difficile clinical isolate 185): >16 µg/mL | MIC (Clostridium difficile; C. difficile clinical isolate 186): >16 µg/mL | MIC90 (MRSA AND VRE; 24 h, Table 1d, MRSA n = 21, VRE n = 3, miconazole MIC alone or with polymixin B fixed at 20 mg/L): 4 µg/mL (≈ 9.61 µM) | MIC 50 (MRSA AND VRE; 24 h, Table 1d, MRSA n = 21, VRE n = 3, miconazole MIC alone or with polymixin B fixed at 20 mg/L, read-out: MIC 50): 2 µg/mL (≈ 4.81 µM) | MIC90 (MRSA AND VRE; [3]): 2 µg/mL (≈ 4.81 µM) | MIC Range (MRSA AND VRE; [3]): 0.5 to 8 µg/mL | MIC 50 (MRSA AND VRE; Table 1a, MRSA n = 27, VRE n = 5, miconazole MIC alone or with D-cycloserine fixed at 10 mg/L, read-out: MIC 50): 2 µg/mL (≈ 4.81 µM) | MIC 50 (MRSA AND VRE; [4]): 2 µg/mL (≈ 4.81 µM) | MIC90 (MRSA AND VRE; [4]): 2 µg/mL (≈ 4.81 µM) | MIC Range (MRSA AND VRE; [4]): 0.5 to 8 µg/mL | MIC 50 (MRSA AND VRE; [5]): 2 µg/mL (≈ 4.81 µM) | MIC90 (MRSA AND VRE; [5]): 4 µg/mL (≈ 9.61 µM) | MIC Range (MRSA AND VRE; [5]): 1 to 6 µg/mL | MIC 50 (MRSA AND VRE; [6]): 2 µg/mL (≈ 4.81 µM) | MIC90 (MRSA AND VRE; [6]): 4 µg/mL (≈ 9.61 µM) | MIC Range (MRSA AND VRE; [6]): 0.5 to 8 µg/mL | MIC 50 (MRSA AND VRE; [7]): 2 µg/mL (≈ 4.81 µM) | MIC90 (MRSA AND VRE; [7]): 2 µg/mL (≈ 4.81 µM) | MIC Range (MRSA AND VRE; [7]): 0.5 to 8 µg/mL | MIC Range (MRSA AND VRE; Table 1d, MRSA n = 21, VRE n = 3, miconazole MIC alone or with polymixin B fixed at 20 mg/L): 1 to 6 µg/mL | MIC ([2]; ATCC 7171 / VRE, Table 4, strain E. faecium ATCC 7171, agents singly or miconazole MIC with 2.5 mg/L nisin): 0.5 µg/mL | MIC ([2]; VRE, Table 4, strain E15 VanAATCC4147 E. faecium, agents singly or miconazole MIC with 2.5 mg/L nisin): 2 µg/mL | MIC ([2]; VRE, Table 4, strain E. faecium VanR B145344C LFE, agents singly or miconazole MIC with 2.5 mg/L nisin): 4 µg/mL
